According to ChEMBL document CHEMBL1201862, “PubChem BioAssay data set” (2004):
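Tested at 5 concentrations; 48 h exposure; 96-well plates; endpoints linearly interpolated, else capped at highest concentration. GI50 marks 50% less growth.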 Active and inactive are the calls of the source. Cut-off read from the data, not from the text of the source: active = GI50 up to about 1.1 µM and inactive = higher.

What was measured:
Test in all cases: NCI-60 cell line screen, 48 h
[1] = tested on: Malme-3M
[2] = tested on: HT-29
[3] = tested on: BT-549
[4] = tested on: OVCAR-4
[5] = tested on: CCRF-CEM
[6] = tested on: UACC-257
[7] = tested on: OVCAR-3
[8] = tested on: ACHN
[9] = tested on: T47D
[10] = tested on: SF-268
[11] = tested on: K562
[12] = tested on: NCI-H23
[13] = tested on: OVCAR-5
[14] = tested on: SK-OV-3
[15] = tested on: A549
[16] = tested on: LOX IMVI
[17] = tested on: SF-295
[18] = tested on: MOLT-4
[19] = tested on: Hs-578T

Measured: GI50

CC(=O)OCC(=O)O[C@@H]1[C@H]2[C@@H](OC(=O)c3ccccc3)[C@@H](C)C[C@]2(O)[C@H](OC(C)=O)[C@@]2(C)C(OC(C)=O)[C@]1(OC(C)=O)C[C@H]1C(=O)C(C)(C)C[C@@H]12 (stereo partly specified)
inactive: [1] 35.9 µM | [2] 25.8 µM | [3] > 35 µM | [4] > 34.2 µM | [5] > 11.2 µM | [6] > 50 µM | [7] > 46.6 µM | [8] > 45.3 µM | [9] > 50 µM | [10] > 50 µM | [11] 9.02 µM | [12] > 50 µM | [13] > 50 µM | [14] > 50 µM | [15] 9.98 µM | [16] > 50 µM | [17] 22.4 µM | [18] > 19.6 µM | [19] > 26.9 µM

O=C(CCc1cccc(O)c1)NCCc1cccc(OCc2ccccc2)c1
inactive: [1] 17.6 µM | [2] 16.6 µM | [3] 16.1 µM | [4] 20.1 µM | [5] 12.6 µM | [6] 16.3 µM | [7] 6.55 µM | [8] 25.4 µM | [9] 18.8 µM | [10] 15.3 µM | [11] 20.5 µM | [12] 18.9 µM | [13] 24.7 µM | [14] 23.6 µM | [15] 28.1 µM | [16] 15.6 µM | [17] 16.7 µM | [18] 11 µM | [19] 16.4 µM

CCOc1cnc(C(O)(c2ccccc2)c2ccccc2)o1
inactive: [1] > 100 µM | [2] > 100 µM | [3] > 100 µM | [4] > 100 µM | [5] > 100 µM | [6] > 100 µM | [7] > 100 µM | [8] > 100 µM | [9] > 100 µM | [10] > 100 µM | [11] > 100 µM | [12] > 100 µM | [13] > 100 µM | [14] > 100 µM | [15] > 100 µM | [16] 69.7 µM | [17] > 100 µM | [18] > 100 µM | [19] > 100 µM

CN1CCN(c2nc3cc(F)ccc3n3cccc23)CC1
inactive: [1] 25.3 µM | [2] 24.9 µM | [3] 49.2 µM | [4] 30.3 µM | [5] 29.8 µM | [6] 26.6 µM | [7] 82.8 µM | [8] 31.6 µM | [9] 29 µM | [10] 48.6 µM | [11] 20.4 µM | [12] 36 µM | [13] 51.2 µM | [14] 45.4 µM | [15] 36.9 µM | [16] 15.8 µM | [17] 21.2 µM | [18] 23.1 µM | [19] 31.4 µM
